In data set [1] the test system is SH-SY5Y human neuroblastoma cell line. The data set is described as follows: Cytotoxicity, Calcein AM viability assay on neuron-like SH-SY5Y cells. The data set is classed as cell-based. How it is done: The SH-SY5Y human neuroblastoma cell line obtained from ECACC (The European Collection of Authenticated Cell Cultures) was cultivated in Dulbecco's modified Eagle's Medium and Ham's F12 Nutrient Mixture (DMEM:F-12, 1:1), supplemented with 10% fetal bovine serum (FBS) and 1% penicillin and streptomycin at 37° C. in a humidified atmosphere 5% CO2, 95% humidity in passage limit up to ECACC+20. The assay was performed in 96-well microplate with 7000 SH-SY5Y cells per well. After 48 h, old DMEM/F12 media was removed by fresh media containing tested compounds at 0.1, 1 and 10 μM concentrations for 24 h. Glial cell line A-172 purchased from ATCC and grown in same conditions as SH-SY5Y cell line. A-172 cells were seeded in density 2000 cells per well and growing medium was replaced by treatment medium containing tested compounds in 0.1, 1 and 10 μM concentration; or in higher concentrations for R-LA or NAC positive controls for 48 hours. All tested compounds dissolved in DMSO were added into the medium. The maximum concentration of DMSO in media was kept below 0.1% (v/v). The cell viability was measured by Calcein AM (1 mg/ml ThermoFisher) viability assay. Solution of Calcein AM in PBS (0.75 μM) was pipetted to cells and incubated for 50 min. After that the fluorescence was measured at 488/517 nm (excitation/emission) using microplate reader Infinite M200 (TECAN). Calcein AM assay is based on the dye-intracellular-esterase cleavage of non-fluorescent dye (Calcein AM) by living cells to fluorescent dye (Calcein), while dying cells lose such ability. The values in Table 2 show the % of viability compared to control for all tested compounds. The results from DMSO control (medium with DMSO, <0.1% (v/v)) was postulated as 100% viability (see the first line of Table 2).

The test system of data set [2] is glial A-172 cells. Nature of the data set: Cytotoxicity, Calcein AM viability assay on glial A-172 cells. The note with it: NAC at 1000 μM. The data set is classed as cell-based, human. How it is done: The assay was performed in 96-well microplate with 7000 SH-SY5Y cells per well. After 48 h, old DMEM/F12 media was removed by fresh media containing tested compounds at 0.1, 1 and 10 μM concentrations for 24 h. Glial cell line A-172 purchased from ATCC and grown in same conditions as SH-SY5Y cell line. […] All tested compounds dissolved in DMSO were added into the medium. The maximum concentration of DMSO in media was kept below 0.1% (v/v). The cell viability was measured by Calcein AM (1 mg/ml ThermoFisher) viability assay. Solution of Calcein AM in PBS (0.75 μM) was pipetted to cells and incubated for 50 min. After that the fluorescence was measured at 488/517 nm (excitation/emission) using microplate reader Infinite M200 (TECAN). Calcein AM assay is based on the dye-intracellular-esterase cleavage of non-fluorescent dye (Calcein AM) by living cells to fluorescent dye (Calcein), while dying cells lose such ability.

The test system of data set [3] is human neuroblastoma cell line SH-SY5Y. Nature of the data set: Viability of differentiated SH-SY5Y in salsolinol-induced model of PD (Calcein AM). Format: cell-based. The settings on record: difference between 800 μM SAL and co-treatment group means, 24 hours. The procedure:
Similarly, as in previous “Safety test”, the SH-SY5Y cells were seeded at density 7000 cells/well. After 48 h differentiation, old 1% DMEM/F12 media was replaced by fresh media containing 800 μM salsolinol (SAL) and tested compounds in 0.1, 1 and 10 μM concentrations. N-acetylcystein were chosen as positive control. After 24 hours, the cell viability was measured by Calcein AM viability assay. The values in Table 2 show % of viability of all tested compounds relative to control. The control (medium with DMSO, <0.1% (v/v)) was postulated as 100% viability (see the first line of the table), while the SAL exposure lead to decrease of viability to 65.4±0.97%.

The subject of data set [4] is caspase-3,7 activity. Nature of the data set: Caspase-3,7 activity in salsolinol-induced model of PD on SH-SY5Y (Ac-DEVD-AMC). Format: cell-based, human. The note with it: Homo sapiens, SH-SY5Y, percentages of control (800 μM SAL = 100), 24 hour co-treatment, read-out: Caspase-3,7 activity (% of reduction). How it is done:
Similarly, as shown in previous assay, cells grew on 96 multiwell plates at density 20000 cells per well underwent differentiation and treatment procedure for salsolinol model. After 24 hour co-treatment with salsolinol, caspase-3,7 (casp-3,7) activity as marker of apoptosis was quantified by its substrate Ac-DEVD-AMC according to Carrasco et al. (2003, BioTechniques, 34, 1064-1067). In this model, overall casp-3,7 activity induced by 800 μM SAL was consider as 100% and thus the reduction in casp-3,7 was observed after treatment with the protective terpenoid derivatives. As shown in Table 4 and FIG. 2, 800 μM SAL induced 2.9-fold increase.

Data set [5] deals with human neuron-like SH-SY5Y cells. Nature of the data set: 3NPA-induced model of Huntington's disease, neuron-like SH-SY5Y cells. Format: cell-based. The settings on record: 10 μM (NAC), difference to 20 mM 3NPA, 48 h. The procedure:
(§1) Before application of toxin 3-nitropropionic acid (3NPA) for mimicking Huntington's disease, the 3NPA was dissolved in water and neutralized by sodium hydroxide. SH-SY5Y cells were seeded in the same density and differentiated by the procedure shown above. Astrocyte cells A-172 were also seeded as described in previous section. Both cell lines were co-treated by 3NPA (20 mM for SH-SY5Y cells, […]) and tested compounds at 0.1, 1 and 10 μM concentration for 48 h.

The subject of data set [6] is astrocyte A-172 cells. The data set is described as follows: 3NPA-induced model of Huntington's disease, astrocyte A-172 cells. Format: cell-based, human. The settings on record: difference to 10 mM 3NPA, 48 h. The procedure: as §1
The test system of data set [7] is superoxide radical formation. The data set is described as follows: Oxidative stress (superoxide radical formation, DHE) in 3NPA-induced model on SH-SY5Y. The data set is classed as cell-based, human. The settings on record: 20 mM 3NPA = 100%, 24 hours. The procedure: Similarly, to previous assay, cells grown on 96-multiwell plates at density 20000 cells per well underwent differentiation and treatment procedure with 3-nitropropionic acid (3NPA) in this model. After 24 hours of co-treatment with 20 mM 3NPA, superoxide radical's formation as a marker of oxidative stress was quantified by dihydroethidium according to Kim et al. (2017, J. Med. Food, 20, 140-151). Briefly, neuron-like SH-SY5Y cells were centrifuged at 500 g for 5 min and 30 s, then media were replaced by 10 μM DHE PBS solution and kept at room temperature for 30 min. After that, DHE was read at 500 nm/580 nm (excitation/emission) by Infinite M200 Pro (Tecan) microplate reader. DHE is cell permeable dye which is selective for superoxide radical detection. Overall oxidative stress achieved by 20 mM 3NPA was consider as 100% and thus the reduction in superoxide radical's formation (OS reducing effect) was determined. As shown in Table 6 and FIG. 2, 20 mM 3NPA induced 2.7-fold increase in superoxide radical's formation.

For data set [8], the system named is glial A-172 cells. The data set is described as follows: Cytotoxicity, Calcein AM viability assay on glial A-172 cells. Format: cell-based, human. The note with it: 48 hours.
In data set [9] the test system is human neuron-like SH-SY5Y cells. Nature of the data set: 3NPA-induced model of Huntington's disease, neuron-like SH-SY5Y cells. Format: cell-based. The settings on record: difference to 20 mM 3NPA, 48 h.

Consider `CC(=O)N[C@@H](CS)C(=O)O` [NAC, N-acetyl cysteine, reference compound], for which the “viability, percentage of DMSO control” value is 92.7% in data set [1] (10 μM (NAC)); 97.5% in data set [1] (100 μM (NAC)); 101.5% in data set [1] (1000 μM (NAC)); 102.9% in data set [8] (10 μM (NAC)); 96.6% in [8] (100 μM (NAC)); 83.0% in data set [8] (1000 μM (NAC)). In addition, in [2], the “effect on viability of astrocytes, in words” value was “slight decrease in percentage of living cells”. The “Neuroprotective effect (% of control)” value in data set [3] (10 μM (NAC)) is “N/A (N/A = no protection)”; in [3] (100 μM (NAC)), “N/A (N/A = no protection)”; in data set [3] (1000 μM (NAC)), 16.15 % of control. Moreover, in data set [4] (100 μM (NAC)), the activity at 100 µM was 60.4%. Further, the activity at 1000 µM in data set [4] (1000 μM (NAC)) stood at 55.2%. Moreover, the “Neuro-protective effect (% of control)” value in [5] was “N/A (N/A = no protection)”; in data set [9] (100 μM (NAC)) it was 51.35 % of control; in data set [9] (1000 μM (NAC)) it was 65.72 % of control. For the same compound, the “Astro-protective effect (% of control)” value is “N/A (N/A = no protection)” in data set [6] (A-172, column head 0.5 μM (positive controls)); “N/A (N/A = no protection)” in [6] (A-172, column head 5 μM (positive controls)); “N/A (N/A = no protection)” in [6] (A-172, column head 50 μM (positive controls)). The entries for the “Superoxide radical formation (oxidative stress) %” value in [7] (10 μM (NAC)), in data set [7] (100 μM (NAC)) and in data set [7] (1000 μM (NAC)) were 79.6%, 79.7% and 48.5%, respectively.

Source of the values: US12636299B2, “Terpenoid derivatives, pharmaceutical preparations containing these derivatives and their use in neuroprotection” (UNIVERZITA PALACKEHO V OLOMOUCI, priority 2020, dated 2026).
